Test results from patent US20110021565A1, “PIPERIDINE DERIVATIVES AS NK3 ANTAGONISTS” (priority 2007, published 2011).

Biological target: T1, recombinant human NK3 receptor (Homo sapiens, UniProt P29371)
T1 construct: expressed in transfected cells; host or cells: HEK293 cells, transient expression; membrane preparation
T1 sequence (P29371 1-465): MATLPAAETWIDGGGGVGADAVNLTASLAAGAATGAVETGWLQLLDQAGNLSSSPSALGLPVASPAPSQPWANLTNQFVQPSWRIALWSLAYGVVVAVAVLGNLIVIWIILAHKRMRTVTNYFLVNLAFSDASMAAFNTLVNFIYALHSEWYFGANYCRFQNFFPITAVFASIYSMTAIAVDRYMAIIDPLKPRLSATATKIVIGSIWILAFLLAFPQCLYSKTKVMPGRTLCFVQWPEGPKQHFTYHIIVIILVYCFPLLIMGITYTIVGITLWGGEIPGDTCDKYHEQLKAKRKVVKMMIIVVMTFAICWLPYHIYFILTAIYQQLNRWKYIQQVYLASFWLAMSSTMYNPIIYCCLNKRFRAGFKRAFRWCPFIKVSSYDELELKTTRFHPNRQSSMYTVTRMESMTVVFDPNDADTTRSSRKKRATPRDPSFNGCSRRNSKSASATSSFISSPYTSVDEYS
Assay: [3H]SR142801 competition binding assay
Settings: [3H]SR142801, membranes of HEK293 cells transiently expressing recombinant human NK3 receptor; read-out: hNK3 Ki
Outline: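 Ki derived by Cheng-Prusoff from Hill-fitted IC50 curves, duplicates, 10 μM SB222200 defining nonspecific binding. Radioligand used at KD concentration against compound at 0.0003-10 μM; transiently transfected HEK293 membranes, 5 μg/well, 75 min room temperature, Tris-HCl/MnCl2/phosphoramidon/BSA pH 7.4. Filter-bound counts read by scintillation.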

Compound | Ki [nM]
CC(CCN1CCC(NS(C)(=O)=O)CC1)(C(=O)NCc1ccc(OC(F)(F)F)cc1)c1ccc(Cl)c(Cl)c1 (stereo not shown) [Example 23, 2-(3,4-Dichloro-phenyl)-4-(4-methanesulfonyl-amino-piperidin-1-yl)-2-methyl-N-(4-trifluoromethoxy-benzyl)-butyramide] | 140
CC(CCN1CCC(NS(C)(=O)=O)CC1)(C(=O)NCc1ccc(Cl)c(C(F)(F)F)c1)c1ccc(Cl)c(Cl)c1 (stereo not shown) [Example 24, N-(4-Chloro-3-trifluoromethyl-benzyl)-2-(3,4-dichloro-phenyl)-4-(4-methanesulfonyl-amino-piperidin-1-yl)-2-methyl-butyramide] | 71.4
CN(Cc1ccc(C(F)(F)F)cc1)C(=O)C(C)(CCN1CCC(NS(C)(=O)=O)CC1)c1ccc(Cl)c(Cl)c1 (stereo not shown) [Example 25, 2-(3,4-Dichloro-phenyl)-4-(4-methanesulfonyl-amino-piperidin-1-yl)-2,N-dimethyl-N-(4-trifluoromethyl-benzyl)-butyramide] | 28.7
CN(Cc1ccc(Cl)cc1)C(=O)C(C)(CCN1CCC(NS(C)(=O)=O)CC1)c1ccc(Cl)c(Cl)c1 (stereo not shown) [Example 26, N-(4-Chloro-benzyl)-2-(3,4-dichloro-phenyl)-4-(4-methanesulfonyl-amino-piperidin-1-yl)-2,N-dimethyl-butyramide] | 26.5
CC(CCN1CCC(NS(C)(=O)=O)CC1)(C(=O)NCc1ccc(C#N)cc1)c1ccc(Cl)c(Cl)c1 (stereo not shown) [Example 27, N-(4-Cyano-benzyl)-2-(3,4-dichloro-phenyl)-4-(4-methanesulfonyl-amino-piperidin-1-yl)-2-methyl-butyramide] | 263
CN(Cc1cccc(C(F)(F)F)c1)C(=O)C(C)(CCN1CCC(NS(C)(=O)=O)CC1)c1ccc(Cl)c(Cl)c1 (stereo not shown) [Example 28, 2-(3,4-Dichloro-phenyl)-4-(4-methanesulfonyl-amino-piperidin-1-yl)-2,N-dimethyl-N-(3-trifluoromethyl-benzyl)-butyramide] | 21.7
CN(Cc1cccc(Cl)c1)C(=O)C(C)(CCN1CCC(NS(C)(=O)=O)CC1)c1ccc(Cl)c(Cl)c1 (stereo not shown) [Example 29, N-(3-Chloro-benzyl)-2-(3,4-dichloro-phenyl)-4-(4-methanesulfonyl-amino-piperidin-1-yl)-2,N-dimethyl-butyramide] | 48.5
CN(Cc1cccc(F)c1)C(=O)C(C)(CCN1CCC(NS(C)(=O)=O)CC1)c1ccc(Cl)c(Cl)c1 (stereo not shown) [Example 30, 2-(3,4-Dichloro-phenyl)-N-(3-fluoro-benzyl)-4-(4-methanesulfonyl-amino-piperidin-1-yl)-2,N-dimethyl-butyramide] | 123
CN(Cc1ccc(C(F)(F)F)nc1)C(=O)C(C)(CCN1CCC(NS(C)(=O)=O)CC1)c1ccc(Cl)c(Cl)c1 (stereo not shown) [Example 31, 2-(3,4-Dichloro-phenyl)-4-(4-methanesulfonyl-amino-piperidin-1-yl)-2,N-dimethyl-N-(6-trifluoromethyl-pyridin-3-ylmethyl)-butyramide] | 500
CN(Cc1ccc(C(F)(F)F)c(F)c1)C(=O)C(CCN1CCC(NS(C)(=O)=O)CC1)c1ccc(Cl)c(Cl)c1 (stereo not shown) [Example 32, 2-(3,4-Dichloro-phenyl)-N-(3-fluoro-4-trifluoromethyl-benzyl)-4-(4-methanesulfonyl-amino-piperidin-1-yl)-N-methyl-butyramide] | 61.7
CN(Cc1ccc(C(F)(F)F)cc1)C(=O)C(CCN1CCC(NS(C)(=O)=O)CC1)c1ccc(Cl)c(Cl)c1 (stereo not shown) [Example 33, 2-(3,4-Dichloro-phenyl)-4-(4-methanesulfonyl-amino-piperidin-1-yl)-N-methyl-N-(4-trifluoromethyl-benzyl)-butyramide] | 81.6
CN(Cc1ccc(Cl)c(Cl)c1)C(=O)C(CCN1CCC(NS(C)(=O)=O)CC1)c1ccc(Cl)c(Cl)c1 (stereo not shown) [Example 34, N-(3,4-Dichloro-benzyl)-2-(3,4-dichloro-phenyl)-4-(4-methanesulfonyl-amino-piperidin-1-yl)-N-methyl-butyramide] | 77.5
CN(Cc1ccc(Cl)c(C(F)(F)F)c1)C(=O)C(CCN1CCC(NS(C)(=O)=O)CC1)c1ccc(Cl)c(Cl)c1 (stereo not shown) [Example 35, N-(4-Chloro-3-trifluoromethyl-benzyl)-2-(3,4-dichloro-phenyl)-4-(4-methanesulfonyl-amino-piperidin-1-yl)-N-methyl-butyramide] | 149
CS(=O)(=O)NC1CCN(CCC(C(=O)NCc2ccc(Cl)c(C(F)(F)F)c2)c2ccc(Cl)c(Cl)c2)CC1 (stereo not shown) [Example 36, N-(4-Chloro-3-trifluoromethyl-benzyl)-2-(3,4-dichloro-phenyl)-4-(4-methanesulfonyl-amino-piperidin-1-yl)-butyramide] | 354
CN(Cc1ccc(Cl)cc1)C(=O)C(CCN1CCC(NS(C)(=O)=O)CC1)c1ccc(Cl)c(Cl)c1 (stereo not shown) [Example 37, N-(4-Chloro-benzyl)-2-(3,4-dichloro-phenyl)-4-(4-methanesulfonyl-amino-piperidin-1-yl)-N-methyl-butyramide] | 78.7
Cc1ccc(CN(C)C(=O)C(CCN2CCC(NS(C)(=O)=O)CC2)c2ccc(Cl)c(Cl)c2)cc1 (stereo not shown) [Example 38, 2-(3,4-Dichloro-phenyl)-4-(4-methanesulfonyl-amino-piperidin-1-yl)-N-methyl-N-(4-methyl-benzyl)-butyramide] | 92.9
CN(Cc1cccc(Cl)c1)C(=O)C(CCN1CCC(NS(C)(=O)=O)CC1)c1ccc(Cl)c(Cl)c1 (stereo not shown) [Example 39, N-(3-Chloro-benzyl)-2-(3,4-dichloro-phenyl)-4-(4-methanesulfonyl-amino-piperidin-1-yl)-N-methyl-butyramide] | 213
CN(Cc1cccc(C(F)(F)F)c1)C(=O)C(CCN1CCC(NS(C)(=O)=O)CC1)c1ccc(Cl)c(Cl)c1 (stereo not shown) [Example 40, 2-(3,4-Dichloro-phenyl)-4-(4-methanesulfonyl-amino-piperidin-1-yl)-N-methyl-N-(3-trifluoromethyl-benzyl)-butyramide] | 280
CN(Cc1ccccc1Cl)C(=O)C(CCN1CCC(NS(C)(=O)=O)CC1)c1ccc(Cl)c(Cl)c1 (stereo not shown) [Example 41, N-(2-Chloro-benzyl)-2-(3,4-dichloro-phenyl)-4-(4-methanesulfonyl-amino-piperidin-1-yl)-N-methyl-butyramide] | 259
CS(=O)(=O)NC1CCN(CCC(C(=O)NCc2ccc(Cl)c(Cl)c2)c2ccc(Cl)c(Cl)c2)CC1 (stereo not shown) [Example 42, N-(3,4-Dichloro-benzyl)-2-(3,4-dichloro-phenyl)-4-(4-methanesulfonyl-amino-piperidin-1-yl)-butyramide] | 192
CN(Cc1cccc(F)c1)C(=O)C(CCN1CCC(NS(C)(=O)=O)CC1)c1ccc(Cl)c(Cl)c1 (stereo not shown) [Example 43, 2-(3,4-Dichloro-phenyl)-N-(3-fluoro-benzyl)-4-(4-methanesulfonyl-amino-piperidin-1-yl)-N-methyl-butyramide] | 254
CN(Cc1ccc(F)c(C(F)(F)F)c1)C(=O)C(CCN1CCC(NS(C)(=O)=O)CC1)c1ccc(Cl)c(Cl)c1 (stereo not shown) [Example 44, 2-(3,4-Dichloro-phenyl)-N-(4-fluoro-3-trifluoromethyl-benzyl)-4-(4-methanesulfonyl-amino-piperidin-1-yl)-N-methyl-butyramide] | 132
CN(Cc1ccc(C(F)(F)F)c(F)c1)C(=O)C(C)(CCN1CCC(N(C)S(C)(=O)=O)CC1)c1ccc(Cl)c(Cl)c1 (stereo not shown) [Example 45, 2-(3,4-Dichloro-phenyl)-N-(3-fluoro-4-trifluoromethyl-benzyl)-4-[4-(methanesulfonyl-methyl-amino)-piperidin-1-yl]-2,N-dimethyl-butyramide] | 8.5
CN(Cc1ccc(Cl)c(C(F)(F)F)c1)C(=O)C(C)(CCN1CCC(N(C)S(C)(=O)=O)CC1)c1ccc(Cl)c(Cl)c1 (stereo not shown) [Example 46, N-(4-Chloro-3-trifluoromethyl-benzyl)-2-(3,4-dichloro-phenyl)-4-[4-(methanesulfonyl-methyl-amino)-piperidin-1-yl]-2,N-dimethyl-butyramide] | 2.4
CN(Cc1ccc(F)c(C(F)(F)F)c1)C(=O)C(C)(CCN1CCC(N(C)S(C)(=O)=O)CC1)c1ccc(Cl)c(Cl)c1 (stereo not shown) [Example 47, 2-(3,4-Dichloro-phenyl)-N-(4-fluoro-3-trifluoromethyl-benzyl)-4-[4-(methanesulfonyl-methyl-amino)-piperidin-1-yl]-2,N-dimethyl-butyramide] | 2.1
CN(Cc1ccc(Cl)c(Cl)c1)C(=O)C(C)(CCN1CCC(N(C)S(C)(=O)=O)CC1)c1ccc(Cl)c(Cl)c1 (stereo not shown) [Example 48, N-(3,4-Dichloro-benzyl)-2-(3,4-dichloro-phenyl)-4-[4-(methanesulfonyl-methyl-amino)-piperidin-1-yl]-2,N-dimethyl-butyramide] | 3.6
CN(C1CCN(CCC(C)(C(=O)NC(c2ccccc2)C(F)(F)F)c2ccc(Cl)c(Cl)c2)CC1)S(C)(=O)=O (stereo not shown) [Example 51, 2-(3,4-Dichloro-phenyl)-4-[4-(methanesulfonyl-methyl-amino)-piperidin-1-yl]-2-methyl-N-(2,2,2-trifluoro-1-phenyl-ethyl)-butyramide] | 18.7

Same assay, conditions: representative compounds; [3H]SR142801, HEK293 membranes, human NK3 receptor; read-out: Ki NK3 h

Compound | Ki [nM]
CN(Cc1ccc(C(F)(F)F)c(F)c1)C(=O)C(C)(CCN1CCC(N(C)S(C)(=O)=O)CC1)c1ccc(Cl)c(Cl)c1 (stereo not shown) [Example 45, 2-(3,4-Dichloro-phenyl)-N-(3-fluoro-4-trifluoromethyl-benzyl)-4-[4-(methanesulfonyl-methyl-amino)-piperidin-1-yl]-2,N-dimethyl-butyramide] | 8.5
CN(Cc1ccc(Cl)c(C(F)(F)F)c1)C(=O)C(C)(CCN1CCC(N(C)S(C)(=O)=O)CC1)c1ccc(Cl)c(Cl)c1 (stereo not shown) [Example 46, N-(4-Chloro-3-trifluoromethyl-benzyl)-2-(3,4-dichloro-phenyl)-4-[4-(methanesulfonyl-methyl-amino)-piperidin-1-yl]-2,N-dimethyl-butyramide] | 2.4
CN(Cc1ccc(F)c(C(F)(F)F)c1)C(=O)C(C)(CCN1CCC(N(C)S(C)(=O)=O)CC1)c1ccc(Cl)c(Cl)c1 (stereo not shown) [Example 47, 2-(3,4-Dichloro-phenyl)-N-(4-fluoro-3-trifluoromethyl-benzyl)-4-[4-(methanesulfonyl-methyl-amino)-piperidin-1-yl]-2,N-dimethyl-butyramide] | 2.1
CN(Cc1ccc(Cl)c(Cl)c1)C(=O)C(C)(CCN1CCC(N(C)S(C)(=O)=O)CC1)c1ccc(Cl)c(Cl)c1 (stereo not shown) [Example 48, N-(3,4-Dichloro-benzyl)-2-(3,4-dichloro-phenyl)-4-[4-(methanesulfonyl-methyl-amino)-piperidin-1-yl]-2,N-dimethyl-butyramide] | 3.6
